From patent publication US4740233A, “Substituted 1,2,4-triazolo[1,5-a]-pyrimidine-2-sulfonamides and compositions and methods of controlling undesired vegetation and suppressing the nitrification of ammonium nitrogen in soil” (The Dow Chemical Company, priority 1986, dated 1988)

Test system: nitrification of ammonium nitrogen
Test: Suppression of nitrification of ammonium nitrogen in soil
Conditions: 27° C.
Experimental: A sufficient volume of water was added to 20 g of the soil in a wide-mouth, screw-cap, 4-ounce, glass bottle, such that the moisture content of the mixture was made equal to the 1/3 bar tension value for that soil. The mixture was thoroughly mixed before sealing. […] Acetone slows the rate of soil nitrification and its concentration must be carefully controlled. Single samples of each test chemical were incubated for two weeks at 27° C.
The experiment comprised the following types of samples:
The soil samples were analyzed as follows: Sufficient ammonium sulfate extracting solution was added to the sample, such that the total volume of added water was 50 ml (included water added during sample preparation). The capped mixture was shaken 10 minutes to solubilize nitrate and the soil particulates were allowed to settle. The nitrate concentration in the water phase was determined with a nitrate-specific ion electrode such as Orion Model 93-07.
The non-nitrate nitrogen remaining (% NH4 -N remaining) in the soil after two weeks (performance value) was calculated as follows: [formula]

SMILES	% NH4-N Remaining After 2 Weeks Incubation (0.01 ppm) [%]	% NH4-N Remaining After 2 Weeks Incubation (0.1 ppm) [%]	% NH4-N Remaining After 2 Weeks Incubation (1 ppm) [%]	% NH4-N Remaining After 2 Weeks Incubation (10 ppm) [%]	% NH4-N Remaining After 2 Weeks Incubation (0.06 ppm) [%]	% NH4-N Remaining After 2 Weeks Incubation (0.25 ppm) [%]	% NH4-N Remaining After 2 Weeks Incubation (4 ppm) [%]	also measured
Cc1cc(C)n2nc(S(=O)(=O)Nc3ccccc3O)nc2n1 [Compound 3]	0	0	0	25	–	–	–	–
CNc1ccccc1NS(=O)(=O)c1nc2nc(C)cc(C)n2n1 [Compound 5]	0	0	1	28	–	–	–	–
Cc1cc(C)n2nc(S(=O)(=O)Nc3ccccc3C(=O)O)nc2n1 [Compound 11]	0	0	0	5	–	–	–	–
Cc1cc(C)n2nc(S(=O)(=O)Nc3ccc(Cl)cc3)nc2n1 [Compound 18]	0	0	5	50	–	–	–	–
Cc1cc(C)n2nc(S(=O)(=O)Nc3ccc(Cl)cc3Cl)nc2n1 [Compound 20]	–	–	8	–	0	0	–	% NH4-N Remaining After 2 Weeks Incubation (0.125 ppm): 0%; % NH4-N Remaining After 2 Weeks Incubation (0.5 ppm): 5%
Cc1cc(C)n2nc(S(=O)(=O)Nc3cc(Cl)ccc3Cl)nc2n1 [Compound 21]	8	42	68	86	–	–	–	–
Cc1cc(C)n2nc(S(=O)(=O)Nc3cc(Cl)cc(Cl)c3)nc2n1 [Compound 24]	0	28	65	83	–	–	–	–
Cc1cc(C)n2nc(S(=O)(=O)Nc3c(F)cccc3C(=O)O)nc2n1 [Compound 27]	0	0	0	35	–	–	–	–
Cc1cc(C)n2nc(S(=O)(=O)Nc3cc(C(F)(F)F)ccc3S(=O)(=O)N(C)C)nc2n1 [Compound 28]	0	5	42	66	–	–	–	–
Cc1cc(C)n2nc(S(=O)(=O)Nc3ccc(F)cc3F)nc2n1 [Compound 29]	0	0	1	51	–	–	–	–
Cc1cc(C)n2nc(S(=O)(=O)Nc3ccccc3C(=O)OC(C)C)nc2n1 [Compound 36]	0	0	17	60	–	–	–	–
Cc1cc(C)n2nc(S(=O)(=O)Nc3ccc(Cl)cc3Br)nc2n1 [Compound 40]	–	–	–	66	–	–	–	% NH4-N Remaining After 2 Weeks Incubation (0.6 ppm): 0%; % NH4-N Remaining After 2 Weeks Incubation (1.25 ppm): 0%; % NH4-N Remaining After 2 Weeks Incubation (2.5 ppm): 40%; % NH4-N Remaining After 2 Weeks Incubation (5 ppm): 17%
Cc1cc(C)n2nc(S(=O)(=O)Nc3ccccc3C(=O)N(C)C)nc2n1 [Compound 42]	0	0	8	68	–	–	–	–
Cc1cc(C)n2nc(S(=O)(=O)Nc3ccc(Cl)cc3C(=O)N(C)C)nc2n1 [Compound 43]	0	0	44	91	–	–	–	–
Cc1cc(C)n2nc(S(=O)(=O)Nc3c(Cl)ccc(C)c3Cl)nc2n1 [Compound 46]	50	71	88	94	–	–	–	–
Cc1cc(Cl)c(NS(=O)(=O)c2nc3nc(C)cc(C)n3n2)c(Cl)c1 [Compound 47]	0	40	73	92	–	–	–	–
Cc1cc(C)n2nc(S(=O)(=O)Nc3ccccc3SC(F)(F)F)nc2n1 [Compound 55]	–	–	65	–	19	91	84	–
Cc1cc(C)n2nc(S(=O)(=O)Nc3ccccc3S(=O)(=O)C(F)(F)F)nc2n1 [Compound 57]	–	–	45	–	2	17	69	–

SMILES	% NH4-N Remaining After 2 Weeks Incubation (0.01 ppm) [%]	% NH4-N Remaining After 2 Weeks Incubation (0.1 ppm) [%]	% NH4-N Remaining After 2 Weeks Incubation (1 ppm) [%]	% NH4-N Remaining After 2 Weeks Incubation (10 ppm) [%]	% NH4-N Remaining After 2 Weeks Incubation (0.06 ppm) [%]	% NH4-N Remaining After 2 Weeks Incubation (0.25 ppm) [%]	% NH4-N Remaining After 2 Weeks Incubation (4 ppm) [%]	also measured
Cc1cc(C)n2nc(S(=O)(=O)Nc3c(C)cccc3Br)nc2n1 [Compound 58]	–	–	58	–	92	48	80	–
Cc1cc(C)n2nc(S(=O)(=O)Nc3ccccc3SC(F)(F)C(F)F)nc2n1 [Compound 59]	–	–	51	–	11	33	66	–
Cc1cc(C)n2nc(S(=O)(=O)Nc3ccccc3[S+]([O-])C(F)(F)C(F)F)nc2n1 (stereo not shown) [Compound 60]	–	–	–	58	–	–	–	% NH4-N Remaining After 2 Weeks Incubation (0.6 ppm): 0%; % NH4-N Remaining After 2 Weeks Incubation (1.25 ppm): 0%; % NH4-N Remaining After 2 Weeks Incubation (2.5 ppm): 8%; % NH4-N Remaining After 2 Weeks Incubation (5 ppm): 41%
Cc1cc(C)n2nc(S(=O)(=O)Nc3c(C)cccc3C(N)=O)nc2n1 [Compound 61]	–	–	–	100	–	–	–	% NH4-N Remaining After 2 Weeks Incubation (0.6 ppm): 20%; % NH4-N Remaining After 2 Weeks Incubation (1.25 ppm): 34%; % NH4-N Remaining After 2 Weeks Incubation (2.5 ppm): 65%; % NH4-N Remaining After 2 Weeks Incubation (5 ppm): 89%
Cc1cc(C)n2nc(S(=O)(=O)Nc3c(C)cccc3C(=O)N(C)C)nc2n1 [Compound 62]	–	–	–	75	–	–	–	% NH4-N Remaining After 2 Weeks Incubation (0.6 ppm): 0%; % NH4-N Remaining After 2 Weeks Incubation (1.25 ppm): 13%; % NH4-N Remaining After 2 Weeks Incubation (5 ppm): 55%
Cc1cc(C)n2nc(S(=O)(=O)Nc3c(C)cccc3C(=O)OC(C)C)nc2n1 [Compound 64]	–	–	62	–	19	43	81	–
CCCSc1ccccc1NS(=O)(=O)c1nc2nc(C)cc(C)n2n1 [Compound 67]	–	–	41	–	0	0	69	–
Cc1cc(C)n2nc(S(=O)(=O)Nc3cccc(Cl)c3C)nc2n1 [Compound 68]	–	–	16	–	0	20	57	–
CSc1cccc(C)c1NS(=O)(=O)c1nc2nc(C)cc(C)n2n1 [Compound 70]	–	–	69	–	0	29	87	–
Cc1cc(C)n2nc(S(=O)(=O)Nc3c(C)cccc3C(=O)OCCN(C)C)nc2n1 [Compound 73]	–	–	41	–	26	47	62	–
Cc1cc(C)n2nc(S(=O)(=O)Nc3c(C)cccc3C(=O)Oc3ccccc3)nc2n1 [Compound 75]	–	–	67	–	25	61	86	–
Cc1cc(C)n2nc(S(=O)(=O)Nc3ccccc3SC(C)(C)C)nc2n1 [Compound 80]	–	–	20	–	0	0	43	–
Cc1cc(C)n2nc(S(=O)(=O)Nc3c(Cl)cccc3COCc3ccccc3)nc2n1 [Compound 92]	–	–	0	–	0	4	25	–
Cc1cc(C)n2nc(S(=O)(=O)Nc3ccccc3S(=O)(=O)c3ccccc3)nc2n1 [Compound 96]	–	–	–	100	–	–	–	% NH4-N Remaining After 2 Weeks Incubation (0.6 ppm): 0%; % NH4-N Remaining After 2 Weeks Incubation (1.25 ppm): 0%; % NH4-N Remaining After 2 Weeks Incubation (2.5 ppm): 7%; % NH4-N Remaining After 2 Weeks Incubation (5 ppm): 42%
Cc1cc(C)n2nc(S(=O)(=O)Nc3ccccc3Oc3ccc(C(F)(F)F)cc3Cl)nc2n1 [Compound 97]	–	–	3	–	67	0	19	–
Cc1cc(C)n2nc(S(=O)(=O)Nc3ccccc3Oc3ncc(C(F)(F)F)cc3Cl)nc2n1 [Compound 99]	–	–	0	–	0	–	57	–
COC(=O)c1ccc(C(=O)OC)c(NS(=O)(=O)c2nc3nc(C)cc(C)n3n2)c1 [Compound 102]	–	–	–	44	–	–	–	% NH4-N Remaining After 2 Weeks Incubation (0.6 ppm): 0%; % NH4-N Remaining After 2 Weeks Incubation (1.25 ppm): 0%; % NH4-N Remaining After 2 Weeks Incubation (2.5 ppm): 0%; % NH4-N Remaining After 2 Weeks Incubation (5 ppm): 24%
